The results in this text go back to patent US6214872A, “Aryloxyarylsulfonylamino hydroxamic acid derivatives” (Pfizer Inc., priority 1999, dated 2001).

The target in experiment [1] is T1, Human Collagenase (MMP-1) (Homo sapiens, UniProt P03956).
T1 sequence (P03956 100-469): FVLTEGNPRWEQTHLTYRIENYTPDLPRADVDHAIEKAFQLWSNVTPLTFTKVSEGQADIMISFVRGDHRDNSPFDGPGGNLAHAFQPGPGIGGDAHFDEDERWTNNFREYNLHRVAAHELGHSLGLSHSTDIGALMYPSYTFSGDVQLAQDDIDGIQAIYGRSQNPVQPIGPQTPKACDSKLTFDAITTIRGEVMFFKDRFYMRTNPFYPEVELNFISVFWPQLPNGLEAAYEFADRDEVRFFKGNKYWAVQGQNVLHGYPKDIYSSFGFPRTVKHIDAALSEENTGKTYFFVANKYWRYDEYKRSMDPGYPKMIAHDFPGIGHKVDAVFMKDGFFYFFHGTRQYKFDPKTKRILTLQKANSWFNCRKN
Nature of the experiment: Inhibition of Human Collagenase (MMP-1). It is filed as biochemical. The conditions noted are these: Table 1; human recombinant collagenase, fluorogenic substrate, room temperature. As to the method: Human recombinant collagenase is activated with trypsin using the following ratio: 10 mg trypsin per 100 mg of collagenase. The trypsin and collagenase are incubated at room temperature for 10 minutes then a five fold excess (50 mg/10 mg trypsin) of soybean trypsin inhibitor is added. 10 mM stock solutions of inhibitors are made up in dimethyl sulfoxide and then diluted using the following Scheme: 10 mM→120 μM→12 μM→1.2 μM→0.12 μM Twenty-five microliters of each concentration is then added in triplicate to appropriate wells of a 96 well microfluor plate. The final concentration of inhibitor will be a 1:4 dilution after addition of enzyme and substrate. Positive controls (enzyme, no inhibitor) are set up in wells D1-D6 and blanks (no enzyme, no inhibitors) are set in wells D7-D12. Collagenase is diluted to 400 ng/ml and […] is then added to appropriate wells of the microfluor plate. Final concentration of collagenase in the assay is 100 ng/ml. Substrate ([…]) is made as a 5 mM stock in dimethyl sulfoxide and then diluted to […] in assay buffer. The assay is initiated by the addition of […] substrate per well of the microfluor plate to give a final concentration of 10 mM. Fluorescence readings (360 nm excitation, 460 nm emission) were taken at time 0 and then at 20 minute intervals. The assay is conducted at room temperature with a typical assay time of 3 hours. Fluorescence vs time is then plotted for both the blank and collagenase containing samples (data from triplicate determinations is averaged). […] The zero time is used as a blank for each compound at each concentration and these values are subtracted from the 120 minute data. Data is plotted as inhibitor concentration vs % control (inhibitor fluorescence divided by fluorescence of collagenase alone×100). IC50 's are determined from the concentration of inhibitor that gives a signal that is 50% of the control. If IC50 's are reported to be <0.03 mM then the inhibitors are assayed at concentrations of 0.3 mM, 0.03 mM, […] and 0.003 mM.

Experiment [2] addresses Human recombinant MMP-13 (collagenase 3) (Homo sapiens, UniProt P45452). Kind of experiment: Inhibition of MMP-13. The conditions noted are these: human recombinant MMP-13, fluorogenic substrate. Type of experiment: biochemical. As to the method:
Human recombinant MMP-13 is activated with 2 mM APMA (p-aminophenyl mercuric acetate) for 1.5 hours, at 37° C. and is diluted to […] in assay buffer (50 mM Tris, pH 7.5, 200 mM sodium chloride, 5 mM calcium chloride, […], 0.02% brij). Twenty-five microliters of diluted enzyme is added per well of a 96 well microfluor plate. The enzyme is then diluted in a 1:4 ratio in the assay by the addition of inhibitor and substrate to give a final concentration in the assay of […]. 10 mM stock solutions of inhibitors are made up in dimethyl sulfoxide and then diluted in assay buffer as per the inhibitor dilution scheme for inhibition of human collagenase (MMP-1): Twenty-five microliters of each concentration is added in triplicate to the microfluor plate. The final concentrations in the assay are 30 mM, 3 mM, 0.3 mM, and 0.03 mM. Substrate ([…]) is prepared as for inhibition of human collagenase (MMP-1) and […] is added to each well to give a final assay concentration of 10 mM. Fluorescence readings (360 nm excitation; 450 emission) are taken at time 0 and every 5 minutes for 1 hour. Positive controls consist of enzyme and substrate with no inhibitor and blanks consist of substrate only. IC50 's are determined as per inhibition of human collagenase (MMP-1). If IC50 's are reported to be less than […], inhibitors are then assayed at final concentrations of 0.3 mM, 0.03 mM, 0.003 mM and 0.0003 mM.

Structures are written as SMILES. Values joined by “and” are separate entries in the source; they are usually repeats but may differ in a detail not shown here. Equal entries are not always repeated.

As usually defined, the IC50 is the point on the concentration scale where inhibition reaches its midpoint. As to `CCOC(=O)CCN(C1(C(=O)NO)CCCC1)S(=O)(=O)c1ccc(Oc2ccc(F)cc2)cc1` [Example 1, 3-[[4-(4-FLUOROPHENOXY)BENZENESULFONYL]-(1-HYDROXY-CARBAMOYL CYCLOPENTYL)AMINO]-PROPIONIC ACID ETHYL ESTER], the results for the IC50 in experiment [1] and in experiment [2] were 100 nM and 0.9 nM, respectively.

Take `COc1ccc(S(=O)(=O)N(CCC(=O)O)C(C(=O)NO)C2CCCCC2)cc1` (centres unmarked) [cyclohexyl, hydrogen, hydrogen, methoxy]: the 50% inhibitory concentration (IC50) is 18 nM and 22 nM in experiment [1]; 4 nM and 2 nM in experiment [2].

Turning to `COc1ccc(S(=O)(=O)N(CCC(=O)O)C(C)(C)C(=O)NO)cc1` [methyl, methyl, hydrogen, methoxy], the IC50 in experiment [1] was 12000 nM; in experiment [2] it was 590 nM and 730 nM.

`COc1ccc(S(=O)(=O)N(CCC(=O)O)C2(C(=O)NO)CCCC2)cc1` [cyclopentyl, --, hydrogen, methoxy]: the IC50 in experiment [1] is 800 nM and 700 nM; in experiment [2], 21 nM and 25 nM.
